In general, LD50 refers to the dose expected to kill half of the subjects tested.

These results are taken from patent US4115569A, “Cyclic diamine derivatives” (Hoechst Aktiengesellschaft, priority 1971, dated 1978).

Values after ≈ are worked out from the molar mass of the structure shown. Structures can show the parent of a compound that is named as a salt.

One data set concerns dictyocaulus. The settings on record: in vivo; cited from earlier work.
A further data set has as its system filaria. The settings on record: in vivo; cited from earlier work.
The subject of data set [1] is isolated guinea pig intestine (BaCl2). Description: spasmolytic action against barium chloride on the isolated guinea pig intestine. The arrangement: key to Spasmolytic action against BaCl2 (ED50): (--): reduction of 10%; --: reduction of 25%; ----: reduction of 50%; .phi.: substantially no action. The settings on record: barium chloride 10^-4 mg/ml; for IC50: Cavia porcellus, read-out: Spasmolytic action against BaCl2 (ED50). On the procedure: (§1) The compounds according to the invention were also tested for their influence on coronary through-flow on the heart mechanogram and for their spasmolytic action.
(§2) The latter test was performed on the isolated guinea pig intestine by the method of R. Magnus ("Pflugers Archiv" Vol 102 (1904) p 123).

Data set [2] concerns isolated guinea pig intestine (histamine). Description: spasmolytic action against histamine on the isolated guinea pig intestine. The settings on record: histamine 10^-7 g/ml; for IC50: Cavia porcellus, read-out: Spasmolytic action against Histamine (ED50). The arrangement: key to Spasmolytic action against Histamine (ED50): (--): reduction of 10%; --: reduction of 25%; ----: reduction of 50%; .phi.: substantially no action. On the procedure:
as §1, §2

In a further data set the test system is reserpine ptosis. The data set can be described thus: reserpine antagonism (reserpine ptosis test). In kind it is in vivo. The settings on record: for change in vivo at 25 mg/kg: po, 1 hr after 25 mg/kg of substance orally, read-out: % Influence on reserpine ptosis. The method, then: The therapeutic activity of compounds according to the invention was determined by measurement of reserpine antagonism (B. Rubin et al., "J. Pharmacol. exp. Therap." Vol 120 (1957) p 125) and by the effect on the fighting behaviour of fighting mice in the test arrangement of G. Y. Yen et al., (Arch. Int. Pharmacodyn, Vol 123 (1959) p 179).

A further data set is described as follows: acute toxicity (LD50). The settings on record: in vivo.
Data set [3] concerns isolated guinea pig intestine (acetylcholine). The data set can be described thus: spasmolytic action against acetylcholine on the isolated guinea pig intestine. The arrangement: key to Spasmolytic action against Acetylcholine (ED50): (--): reduction of 10%; --: reduction of 25%; ----: reduction of 50%; .phi.: substantially no action. The settings on record: acetylcholine 10^-7 g/ml; for IC50: Cavia porcellus, read-out: Spasmolytic action against Acetylcholine (ED50). On the procedure: as §1, §2

Another data set has as its system coronary vessels. The data set can be described thus: influence on coronary through-flow. On the procedure:
as §1

For a further data set, the system named is heart. The data set can be described thus: influence on the heart mechanogram (heart muscle force). The arrangement: key to Action on the heart mechanogram: (--): reduction of 10%; --: reduction of 25%; ----: reduction of 50%; .phi.: substantially no action. On the procedure:
The compounds according to the invention were also tested for their influence on coronary through-flow on the heart mechanogram and for their spasmolytic action. […]

For `CCN(CC)C(=O)N1CCN(C)CC1` [4-methylpiperazinocarboxylic acid-(1)-diethylamide citrate], in the data set on dictyocaulus, the “use against dictyocaulus infections” value is reported as “successfully used”. The “use against filaria infections” value in the data set on filaria is reported as “successfully used against filaria”.

Consider `O=C(c1cc2ccccc2o1)N1CCN(Cc2ccccc2)CC1` [Compound 1, N-Benzyl-coumarillic acid piperazide], for which the IC50 in data set [1] is 1 to 10 µg/mL (≈ 3.12 to 31.2 µM); in [2], 1 to 10 µg/mL (≈ 3.12 to 31.2 µM); in [3], 10 µg/mL (≈ 31.2 µM). In the data set with reserpine ptosis, the change in vivo at 25 mg/kg is -50%. For the same molecule, the LD50 was determined as 320 mg/kg in “acute toxicity (LD50)” (ip, i.p. mouse) and 2050 mg/kg in the data set “acute toxicity (LD50)” (po, orally, mouse). For the same molecule, the “action on coronary flow / coronary vessels (in words)” value with coronary vessels is “considerable increase in the coronary through-flow without subsequent contraction of the vessel”. Also, the “Coronary through-flow: Duration (initial or only value)” value stood at 0.5 min in the data set with coronary vessels (dose 10 (82 g)), 1.0 min with coronary vessels (dose 30 (82 g)) and 26.0 min with coronary vessels (dose 100 (82 g)). Moreover, the “Coronary through-flow: Change (initial or only value)” value is “+38%” in the data set with coronary vessels (dose 30 (82 g)) and “+120%” in the data set with coronary vessels (dose 100 (82 g)). The “Action on the heart mechanogram” value with heart (dose 10 (82 g)) is reported as “.phi”; in the data set with heart (dose 30 (82 g)), “.phi”; in the data set on heart (dose 100 (82 g)), “-- (reduction of 25%)”. Further, the “reduction of the heart muscle force” value in the data set with heart (dose of 100 μg) is reported as 25%.

`O=C(c1cc2ccccc2o1)N1CCN(Cc2ccc(Cl)cc2)CC1` [Compound 2, N-(4-chloro)-benzyl-coumarillic acid piperazide]: the IC50 in data set [1] and in data set [2] was 1 to 10 µg/mL (≈ 2.82 to 28.2 µM) in each case. For the same molecule, the “Spasmolytic action against Acetylcholine (ED50)” value in data set [3] is listed as “>”.

Turning to `O=C(c1cc2ccccc2o1)N1CCN(Cc2ccc(Cl)c(Cl)c2)CC1` [Compound 3, N-(3,4-dichlorobenzyl)-coumarillic acid piperazide], the change in vivo at 25 mg/kg in the data set with reserpine ptosis was -22%. Also, the 50% lethal dose (LD50) in “acute toxicity (LD50)” (ip, i.p. mouse) was 1000 to 1500 mg/kg.

For the molecule `O=C(c1cc2ccccc2o1)N1CCN(Cc2ccc(F)cc2)CC1` [Compound 5, N-(4-fluorobenzyl)-coumarillic acid piperazide], the change in vivo at 25 mg/kg in the data set with reserpine ptosis was -50%. The same molecule returned an LD50 in “acute toxicity (LD50)” (ip, i.p. mouse) of 100 to 250 mg/kg.

Regarding `O=C(c1cc2ccccc2o1)N1CCN(Cc2cccs2)CC1` [Compound 16, N-thenyl-coumarillic acid piperazide], the “Spasmolytic action against BaCl2 (ED50)” value in data set [1] is listed as “.phi”. In addition, the “Spasmolytic action against Histamine (ED50)” value in data set [2] is listed as “.phi”. For the same molecule, in the data set with reserpine ptosis, the change in vivo at 25 mg/kg was -54%. In addition, the LD50 in the data set “acute toxicity (LD50)” (ip, i.p. mouse) is 100 to 250 mg/kg; in the data set “acute toxicity (LD50)” (po, orally, mouse), 1980 mg/kg. Further, the “Spasmolytic action against Acetylcholine (ED50)” value in data set [3] is listed as “.phi”.

For the molecule `O=C(c1cc2ccccc2o1)N1CCCN(Cc2ccccc2)CC1` [Compound 17, N-benzyl-coumarillic acid homopiperazide], the “Coronary through-flow: Change (initial or only value)” value in the data set on coronary vessels (dose 10 (82 g)) is recorded as “+8%”; in the data set with coronary vessels (dose 30 (82 g)), “+25%”. In addition, the “Coronary through-flow: Duration (initial or only value)” value in the data set on coronary vessels (dose 10 (82 g)) and in the data set with coronary vessels (dose 30 (82 g)) was 1.0 min throughout. Moreover, the “Action on the heart mechanogram” value in the data set on heart (dose 10 (82 g)) and in the data set on heart (dose 30 (82 g)) was “.phi” in each case.

For `O=C(C1Cc2ccccc2O1)N1CCN(Cc2ccccc2)CC1` (stereo not shown) [Compound 20, N-benzyl-2,3-dihydrocoumarillic acid piperazide], the IC50 in data set [1] came to 0.3 µg/mL (≈ 0.93 µM); in data set [2] it was 1 µg/mL (≈ 3.1 µM); in [3], 3 µg/mL (≈ 9.3 µM). In addition, the change in vivo at 25 mg/kg in the data set with reserpine ptosis is -32%. Further, the 50% lethal dose (LD50) in the data set “acute toxicity (LD50)” (ip, i.p. mouse) lay in the range of 100 to 150 mg/kg. For the same molecule, the figures for the “Coronary through-flow: Change (initial or only value)” value in the data set with coronary vessels (dose 10 (82 g)) and in the data set with coronary vessels (dose 50 (82 g)) were “+25%” and “+50%”, respectively.

`O=C(c1ccco1)N1CCN(Cc2ccccc2)CC1` [Compound 21, N-benzyl-furan-2-carboxylic acid piperazide]: the “Spasmolytic action against BaCl2 (ED50)” value in [1] was “.phi”. Further, the IC50 in [2] was found to be 0.1 µg/mL (≈ 0.37 µM). In addition, the “Spasmolytic action against Acetylcholine (ED50)” value in data set [3] was “.phi”.

As for `O=C(c1ccco1)N1CCN(Cc2ccc(Cl)c(Cl)c2)CC1` [Compound 22, N-3,4-dichlorobenzyl-furan-2-carboxylic acid piperazide], in the data set with reserpine ptosis, the change in vivo at 25 mg/kg was -23%. In addition, the median lethal dose (LD50) in “acute toxicity (LD50)” (ip, i.p. mouse) lay in the range of 250 to 500 mg/kg.

In the case of `CC1=C(C(=O)N2CCN(Cc3ccccc3)CC2)CCCO1` [Compound 24, N-benzyl-[6-methyl-2,3-dihydropyran-5-carboxylic acid]piperazide], the “Spasmolytic action against BaCl2 (ED50)” value in data set [1] is recorded as “.phi”. The “Spasmolytic action against Histamine (ED50)” value in data set [2] is “.phi”. The “Spasmolytic action against Acetylcholine (ED50)” value in data set [3] is “.phi”.

For the molecule `CC1=C(C(=O)N2CCN(Cc3ccc(Cl)c(Cl)c3)CC2)CCCO1` [Compound 25, N-3,4-dichlorobenzyl-[6-methyl-2,3-dihydropyran-5-carboxylic acid]-piperazide], the IC50 in [1] is above 10 µg/mL; in data set [2], 1 to 10 µg/mL (≈ 2.71 to 27.1 µM); in data set [3], 1 to 10 µg/mL (≈ 2.71 to 27.1 µM). Besides, the “Coronary through-flow: Duration (initial or only value)” value in the data set on coronary vessels (dose 6 (82 g)) was determined as 8.0 min; in the data set on coronary vessels (dose 30 (82 g)), 27.0 min. Besides, the “Coronary through-flow: Change (initial or only value)” value in the data set on coronary vessels (dose 30 (82 g)) was “+31%”. The “Action on the heart mechanogram” value with heart (dose 6 (82 g)) is “(--) (reduction of 10%)”. Besides, the “reduction of the heart muscle force” value in the data set with heart (dose of 30 μg) is “less than 25%”.

Turning to `CC1=C(C(=O)N2CCN(Cc3c(C)cc(C)cc3C)CC2)CCCO1` [Compound 26, N-(2,4,6-Trimethylbenzyl)-N-2-methyl-5,6-dihydro-pyran-3-carbonyl-piperazine-hydrochloride], in the data set on coronary vessels (dose 30 (82 g)), the “Coronary through-flow: Change (initial or only value)” value is listed as “+13%” and the “Coronary through-flow: Duration (initial or only value)” value worked out at 5 min. For the same molecule, in the data set on coronary vessels (dose 100 (82 g)), the “Coronary through-flow: Change (initial or only value)” value is listed as “+21%” and the “Coronary through-flow: Duration (initial or only value)” value is on record as above 12 min.

Take `CC1=C(C(=O)N2CCN(Cc3cccs3)CC2)CCCO1` [Compound 28]: the “Spasmolytic action against BaCl2 (ED50)” value in data set [1] is listed as “.phi”. Besides, the “Spasmolytic action against Histamine (ED50)” value in data set [2] was “.phi”. Besides, the “Spasmolytic action against Acetylcholine (ED50)” value in data set [3] is listed as “.phi”.

Take `CC1OCCCC1C(=O)N1CCN(Cc2ccccc2)CC1` (stereo not shown) [Compound 29, N-benzyl-[6-methyl-tetrahydropyran-5-carboxylic acid]-piperazide]: the IC50 in data set [1], in [2] and in [3] was above 10 µg/mL each time.

As for `O=C(c1cc2ccccc2[nH]1)N1CCN(Cc2ccccc2)CC1` [Compound 30, N-Benzyl-indole-2-carboxylic acid piperazide], in the data set on coronary vessels (dose 10 (82 g)), the “Coronary through-flow: Change (initial or only value)” value is given as “+90%” and the “Coronary through-flow: Duration (initial or only value)” value was found to be 12 min.

Consider `O=C(c1cccs1)N1CCN(Cc2cccs2)CC1` [Compound 42], for which the change in vivo at 25 mg/kg with reserpine ptosis is -49%. Moreover, the LD50 in “acute toxicity (LD50)” (ip, i.p. mouse) was in the range of 100 to 250 mg/kg.

With `CN(C)CCCN1c2ccccc2CCc2ccccc21` [Imipramine, 5-(3'-dimethylaminopropyl)-10-11-dihydro-5-H-dibenz-[b,f]-azepine hydrochloride, reference compound], the IC50 in [1] is 0.1 to 1 µg/mL; in data set [2] it was 0.001 µg/mL; in data set [3], 0.01 to 0.1 µg/mL. Further, in the data set with reserpine ptosis (in vivo), the “activity in reserpine test (in words)” value is recorded as “high activity”. Besides, the change in vivo at 25 mg/kg in the data set with reserpine ptosis was -76%. The “action on coronary flow / coronary vessels (in words)” value in the data set on coronary vessels was “initially a brief rise in coronary flow but this changes into a long contraction, and thus damages the heart”. Besides, the “Coronary through-flow: Change (initial or only value)” value in the data set on coronary vessels (dose 10 (82 g)) was “+19%”; in the data set with coronary vessels (dose 20 (82 g)), “+28%”; with coronary vessels (dose 30 (82 g)), “+84%”. The “Coronary through-flow: Change (second value, subsequent contraction)” value was -18% in the data set with coronary vessels (dose 10 (82 g)), -29% with coronary vessels (dose 20 (82 g)) and -22% in the data set with coronary vessels (dose 30 (82 g)). Besides, the results for the “Coronary through-flow: Duration (initial or only value)” value in the data set on coronary vessels (dose 10 (82 g)) and in the data set with coronary vessels (dose 20 (82 g)) were 0.5 min and 0.6 min, respectively. The “Coronary through-flow: Duration (second value, subsequent contraction)” value is on record as 21 min in the data set on coronary vessels (dose 10 (82 g)), 26 min in the data set with coronary vessels (dose 20 (82 g)) and above 10 min with coronary vessels (dose 30 (82 g)). Also, the “Action on the heart mechanogram” value was “-- (reduction of 25%)” in the data set on heart (dose 10 (82 g)), “-- (reduction of 25%)” with heart (dose 20 (82 g)) and “---- (reduction of 50%)” in the data set on heart (dose 30 (82 g)). Moreover, the “reduction of the heart muscle force” value in the data set with heart (dose of 10 μg) is 25%; in the data set with heart (dose of 20 μg), 25%; in the data set with heart (dose of 30 μg) it was 50%.
